{
  "source": "patent US7220587B2",
  "about": "(priority 2001, dated 2007)",
  "key": {"[1]": {"system": "Wild-type Landsberg seedlings", "assay": "taxol treatment of dark-grown wild-type seedlings", "type": "in vivo, Arabidopsis thaliana", "settings": "10 days in the dark", "excerpt": "(§1) The role of ethylene in the reduction of hypocotyl and root elongation has not yet been elucidated. One possibility relates to the theory that cortical microtubules associated with the plasma membrane may direct the cellulose synthase complex that is responsible for cell wall deposition. The drug taxol acts to stabilize microtubules by inhibiting microtubule depolymerization (Schiff and Horwitz 1981) and may inhibit the shift in cortical microtubules upon ethylene treatment,(Heinstein and Chang 1994). To determine if taxol could affect the ethylene insensitivity phenotype of ein6/een mutants, wild-type and ein6/een mutants were given a 10 day taxol treatment in the dark (Example 12).\n(§2) Wild-type Landsberg seedlings or ein6/een mutant seedlings were grown in the presence of either 0 μM, 0.1 μM, or 1 μM taxol for 10 days in the dark, following the method of Roman and Ecker (Phil. Trans. R. Soc. Lond. B. 350: 75–81, 1995, which is herein incorporated by reference in its entirety). […] Hypocotyl cells of the taxol-treated tissue appeared shorter and rounder than wild-type cells. […] From these observations, it has been concluded that the ein6/een double mutation, (or possibly the een single mutation) is responsible for the taxol sensitivity phenotype."}, "[2]": {"system": "ein6/een mutant seedlings", "assay": "taxol treatment of dark-grown ein6/een double mutant seedlings", "type": "in vivo, Arabidopsis thaliana", "excerpt": "as §1, §2"}},
  "data": [
    {"smiles": "CC(=O)O[C@H]1C(=O)[C@@]2(C)[C@H]([C@H](OC(=O)c3ccccc3)[C@]3(O)C[C@H](OC(=O)[C@H](O)[C@@H](NC(=O)c4ccccc4)c4ccccc4)C(C)=C1C3(C)C)[C@]1(OC(C)=O)CO[C@@H]1C[C@@H]2O", "note": "[taxol]", "values": [
      {"measurement": "seedling size compared to untreated seedlings", "setting": "[1]; 0.1 μM taxol", "result": "did not have an altered size"},
      {"measurement": "effect on seedling elongation", "setting": "[1]; 1 μM taxol", "result": "inhibition of elongation"},
      {"measurement": "seedling phenotype (length)", "setting": "[2]; 0.1 μM taxol, 10 days in the dark", "result": "shortened phenotype"},
      {"measurement": "seedling length compared to non-treated ein6/een mutant seedlings", "setting": "[2]; 1 μM taxol, 10 days in the dark", "result": "significantly shorter"},
      {"measurement": "sensitivity of mutants to taxol", "setting": "[2]; low levels (0.1 μM) of taxol, 10 day treatment in the dark", "result": "especially sensitive"}
    ]}
  ]
}
